Results reported in patent US9403774B2, “Guanidine and amine substituted tetrahydroisoquinoline compounds as factor xia inhibitors” (BRISTOL-MYERS SQUIBB COMPANY, priority 2012, dated 2016).
Structures can show the parent of a compound that is named as a salt.

Each molecule was assayed against purified human Factor XIa (Homo sapiens (Human), UniProt P03951) (assay: Factor XIa assay (chromogenic substrate S-2366 hydrolysis)). Conditions: substrate S-2366, pH 7.4.
purified human Factor XIa, sequence (P03951 388-625): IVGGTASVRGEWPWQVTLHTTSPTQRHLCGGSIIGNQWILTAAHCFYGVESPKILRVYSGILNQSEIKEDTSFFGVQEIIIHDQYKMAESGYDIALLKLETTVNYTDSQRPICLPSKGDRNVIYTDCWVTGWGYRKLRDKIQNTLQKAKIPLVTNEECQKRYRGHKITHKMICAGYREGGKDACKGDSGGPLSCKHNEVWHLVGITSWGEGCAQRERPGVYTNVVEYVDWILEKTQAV
purified human Factor XIa, sequence (P03951 19-387 partner): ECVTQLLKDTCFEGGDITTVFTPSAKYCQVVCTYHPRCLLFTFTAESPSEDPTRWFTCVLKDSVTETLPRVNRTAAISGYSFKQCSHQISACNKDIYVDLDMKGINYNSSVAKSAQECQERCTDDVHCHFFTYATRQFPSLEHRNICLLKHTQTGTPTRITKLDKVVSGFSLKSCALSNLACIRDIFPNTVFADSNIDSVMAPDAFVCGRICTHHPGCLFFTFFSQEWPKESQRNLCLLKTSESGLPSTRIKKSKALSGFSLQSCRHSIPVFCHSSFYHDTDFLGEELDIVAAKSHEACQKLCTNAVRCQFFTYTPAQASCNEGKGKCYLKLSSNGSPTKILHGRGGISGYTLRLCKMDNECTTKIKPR
Format: biochemical
Description: The effectiveness of compounds of the present invention as inhibitors of the coagulation factors XIa, VIIa, IXa, Xa, XIIa, plasma kallikrein or thrombin, can be determined using a relevant purified serine protease, respectively, and an appropriate synthetic substrate. The rate of hydrolysis of the chromogenic or fluorogenic substrate by the relevant serine protease was measured both in the absence and presence of compounds of the present invention. […] A decrease in the rate of absorbance or fluorescence change in the presence of inhibitor is indicative of enzyme inhibition. Such methods are known to one skilled in the art. The results of this assay are expressed as the inhibitory constant, Ki.
Factor XIa determinations were made in 50 mM HEPES buffer at pH 7.4 containing 145 mM NaCl, 5 mM KCl, and 0.1% PEG 8000 (polyethylene glycol; JT Baker or Fisher Scientific). Determinations were made using purified human Factor XIa at a final concentration of 75-200 pM (Haematologic Technologies) and the synthetic substrate S-2366 (pyroGlu-Pro-Arg-pNA; CHROMOGENIX® or AnaSpec) at a concentration of 0.0002-0.001 M.
The Michaelis constant, Km, for substrate hydrolysis by each protease, was determined at 25° C. using the method of Lineweaver and Burk. Values of Ki were determined by allowing the protease to react with the substrate in the presence of the inhibitor. Reactions were allowed to go for periods of 20-180 minutes (depending on the protease) and the velocities (rate of absorbance or fluorescence change versus time) were measured. The following relationships were used to calculate Ki values: (vo−vs)/vs=I/(Ki(1+S/Km)) for a competitive inhibitor with one binding site; or vs/vo=A+((B−A)/1+((IC50/(I)n))); and Ki═IC50/(1+S/Km) for a competitive inhibitor where: […]
Molecule CC1(C)Cc2c(-c3ccc4c(c3)OCO4)cccc2C(C(=O)Nc2ccc(C(=O)O)cc2)N1C(=O)[C@H]1CC[C@H](CN)CC1 (stereo partly drawn) [Example 16] has a Ki of 166 nM. CNC(=O)c1ccc(-c2cccc3c2CCN(C(=O)[C@H]2CC[C@H](CN)CC2)C3C(=O)Nc2ccc(C(=O)O)cc2)cc1 (stereo partly drawn) [Example 4, 4-(2-((1r,4r)-4-(aminomethyl)cyclohexanecarbonyl)-5-(4-(methylcarbamoyl)phenyl)-1,2,3,4-tetrahydroisoquinoline-1-carboxamido)benzoic acid, TFA Salt] was tested, and the Ki was under 5 nM. CC1(C)Cc2c(-c3ccc4ncccc4c3)cccc2C(C(=O)Nc2ccc(C(=O)O)cc2)N1C(=O)[C@H]1CC[C@H](CN)CC1 (stereo partly drawn) [Example 26] gave a Ki of 48.3 nM. CC1(C)Cc2c(-c3cc4ccccc4s3)cccc2C(C(=O)Nc2ccc(C(=O)O)cc2)N1C(=O)[C@H]1CC[C@H](CN)CC1 (stereo partly drawn) [Example 20] gave a Ki of 782 nM. NC[C@H]1CC[C@H](C(=O)N2CCc3ccccc3[C@H]2C(=O)Nc2ccc(C(=O)O)cc2)CC1 [Example 32, 4-((S)-2-((1r,4S)-4-(aminomethyl)cyclohexanecarbonyl)-1,2,3,4-tetrahydroisoquinoline-1-carboxamido)benzoic acid, TFA salt] showed a Ki of 84.6 nM. COC1CCN(c2cccc3c2CCN(C(=O)c2ccc(N)cc2)C3C(=O)Nc2ccc(C(=O)O)cc2)CC1 (stereo not drawn) [Example 1, 4-(2-(4-aminobenzoyl)-5-(4-methoxypiperidin-1-yl)-1,2,3,4-tetrahydroisoquinoline-1-carboxamido)benzoic acid, bis-TFA salt] was tested, and the Ki was 542 nM.
